Reference: patent publication US20110166132A1, “Gamma Secretase Modulators” (Amgen Inc., priority 2007, published 2011)

Biological target: T1, gamma secretase (Homo sapiens, UniProt P49768)
T1 construct: HEK293 cells stably expressing full length Amyloid Precursor Protein (APP); endogenous in cells; host or cells: HEK 293 cells stably expressing full length APP
Assay: GSM cell-based assay: Aβ 42 inhibition or reduction in HEK 293 cells over-expressing APP (sandwich ELISA)
Settings: approximate IC50; HEK293 cells stably expressing full length APP, 24 hours incubation, 10-point dose response starting at 10 μM
Description: GSM cell-based assays were designed to measure the modulation of Aβ 42 from HEK 293 cells over-expressing APP.
Three simultaneous cell-based assays, namely Aβ 42 inhibition or reduction, Aβ 40 inhibition or reduction and a measurement of cell viability of the cells from which the Aβ 42/40 readout was obtained, together gave an interpretation of gamma secretase modulation (GSM). The assays measure Aβ 42 and Ab 40 from conditioned medium of test compound treated HEK 293 cells.
HEK293 cells stably expressing full length Amyloid Precursor Protein (APP) were plated at a density of 100K cells/well in 96 well plates (Costar). The cells were cultivated for 6 hours at 37° C. and 5% CO2 in DMEM supplemented with 10% FBS. The test compounds were then added to cells in 10-point dose response concentrations with the starting concentration being 10 μM. The compounds were diluted from stock solutions in DMSO and the final DMSO concentration of the test compounds on cells was 0.1%. After 24 hours of incubation with the test compounds the supernatant conditioned media was collected and the Aβ 42, Aβ 40 levels were determined using a sandwich ELISA. A cell viability test (CellTiter-Blue Cell Viability assay, Promega) on the cells from which the conditioned medium was harvested for Aβ 42 or Aβ 40 readouts gave an indication of cell survivability as a possible reason for false positive Aβ 42 or 40 reduction or inhibition readout. The IC50 of the compound (for either Aβ 42 or Aβ 40) was calculated from the percent of control or percent inhibition of Aβ 42 or Aβ 40 as a function of the concentration of the test compound.
The sandwich ELISA to detect Aβ 42 or Aβ 40 was performed in 96 well microtiter plates, which were pre-treated with goat anti-rabbit IgG (Pierce). The capture and detecting antibody pair that were used to detect Aβ 42 and Aβ 40 from cell supernatants were rabbit monoclonal Antibody 42 (RabMAb 42) and affinity purified polyclonal Antibody 40 pAB40 (Biosource) as capture antibodies and biotinylated 6E10 (Signet Labs Inc.) as detection antibody. The optimal concentration for RabMAb 42 was 1 μg/ml in Superblock/TBS (Pierce) that was supplemented with 0.05% Tween 20 (Sigma). The optimal concentration for the pAb40 antibody was 3 μg/ml in Superblock/TBS (Pierce) that was supplemented with 0.05% Tween 20 (Sigma). Optimal concentration for the detection antibody 6E10-biotinylated was 0.5 μg/ml in Superblock/TBS (Pierce) that had been supplemented with 2% normal goat serum and 2% normal mouse serum.
Cellular supernatants were incubated with the capture antibody for 16-20 hours at 4° C., followed by 3 wash steps in TBS-tween (0.05%). The detecting antibody incubation was for 3 hours at 4° C., again followed by the wash steps as described previously. The final readout of the ELISA is Time-Resolved Fluorescence (counts per minute) using Delfia reagents Streptavidin-Europium and Enhancement solutions (Perkin Elmer) and the EnVision Multilabel plate reader (Perkin Elmer).

| Structure (SMILES) | IC50 [nM] |
| --- | --- |
| Cc1cc(-c2ccc(NC(=O)C(C)c3cccc(N4CCN(C)CC4)c3)cc2)ccn1 (centres unmarked) [Cpd 138] | > 10000 |
| Cc1cc(-c2ccc(NC(=O)C(C)c3cccc(C4CCN(CCO)CC4)c3)cc2)ccn1 (centres unmarked) [Cpd 140] | > 10000 |
| Cc1cc(-c2ccc(NC(=O)C(C)c3cccc(N4CCOCC4)n3)cc2)ccn1 (centres unmarked) [Cpd 141] | 8570 |
| Cc1cc(-c2ccc(NC(=O)C(CC(C)C)c3cccc(S(C)(=O)=O)c3)cc2)ccn1 (centres unmarked) [Cpd 145] | > 10000 |
| Cc1cc(-c2ccc(NC(=O)C(C)c3cccc(Br)c3)c(C#N)c2)ccn1 (centres unmarked) [Cpd 161, 2-(3-bromophenyl)-N-(2-cyano-4-(2-methyl-4-pyridinyl)phenyl)propanamide] | > 10000 |
| COCCNc1cccc(C(C)C(=O)Nc2ccc(-c3ccnc(C)c3)cc2)c1 (centres unmarked) [Cpd 166] | 2840 |
| Cc1cc(-c2ccc(NC(=O)[C@H]3CCCN3C(=O)OC(C)(C)C)cc2)ccn1 [Cpd 168] | > 10000 |
| Cc1cc(-c2ccc(NC(=O)C(C)c3ccc(NCC4CC4)cc3)cc2)ccn1 (centres unmarked) [Cpd 171, 2-(4-((cyclopropylmethyl)amino)phenyl)-N-(4-(2-methyl-4-pyridinyl)phenyl)-propanamide] | 2480 |
| Cc1cc(-c2ccc(NC(=O)C(CC(C)C)C3CCOCC3)cc2)ccn1 (centres unmarked) [Cpd 173] | > 10000 |
| COCCNc1cccc(C(CC(C)C)C(=O)Nc2ccc(-c3ccnc(C)c3)cc2)n1 (centres unmarked) [Cpd 182, 2-(6-((2-methoxyethyl)amino)-2-pyridinyl)-4-methyl-N-(4-(2-methyl-4-pyridinyl)-phenyl)pentanamide] | > 10000 |
| Cc1cc(-c2ccc(NC(=O)C3CC34CCC4)cc2)ccn1 (centres unmarked) [Cpd 186] | > 10000 |
| Cc1cc(-c2ccc(NC(=O)C(C)c3ccc(NC4CCOCC4)cc3)cc2)ccn1 (centres unmarked) [Cpd 188, N-(4-(2-methyl-4-pyridinyl)phenyl)-2-(4-(tetrahydro-2H-pyran-4-ylamino)phenyl)-propanamide] | 2590 |
| Cc1cc(-c2ccc(NC(=O)c3cccc(C#N)c3)cc2)ccn1 [Cpd 275] | > 10000 |
| Cc1cc(-c2ccc(NC(=O)c3cccc(C(F)(F)F)c3)cc2)ccn1 [Cpd 279] | > 10000 |
| Cc1cc(-c2ccc(NC(=O)c3ccc(-c4ccccc4)cc3)cc2)ccn1 [Cpd 280] | > 10000 |
| COc1cc(C(=O)Nc2ccc(-c3ccnc(C)c3)cc2)ccc1C [Cpd 282] | > 10000 |
| Cc1cc(-c2ccc(NC(=O)c3cccc4c3oc3ccccc34)cc2)ccn1 [Cpd 286] | 6710 |
| Cc1cc(-c2ccc(NC(=O)C3(c4ccccc4F)CC3)cc2)ccn1 [Cpd 288] | 1770 |
| Cc1cc(-c2ccc(NC(=O)[C@@H](C)c3cc(C(F)(F)F)cc(C(F)(F)F)c3)cc2)ccn1 [Cpd 290, (2S)-2-(3,5-bis(trifluoromethyl)phenyl)-N-(4-(2-methyl-4-pyridinyl)phenyl)-propanamide] | > 10000 |
| Cc1cc(-c2ccc(NC(=O)c3cn4cc(Cl)ccc4n3)cc2)ccn1 [Cpd 300] | > 10000 |
| Cc1cc(-c2ccc(NC(=O)c3cc4ccccc4n3C)cc2)ccn1 [Cpd 305] | 5540 |
| Cc1cc(-c2ccc(NC(=O)C3CC(=O)N(c4ccc(Cl)cc4)C3)cc2)ccn1 (centres unmarked) [Cpd 308] | > 10000 |

Compounds with a lower IC50, results first:

| IC50 [nM] | Structure (SMILES) |
| --- | --- |
| 191 | Cc1cc(-c2ccc(NC(=O)[C@H](CC(C)C)c3ccc(-c4ccc(N5CCOCC5)cc4)cc3)cc2)ccn1 [Cpd 131, (2R)-4-methyl-N-(4-(2-methyl-4-pyridinyl)-phenyl)-2-(4′-(4-morpholinyl)-4-biphenylyl)pentanamide] |
| 242 | Cc1cc(-c2ccc(NC(=O)C(CC(C)C)c3ccc(N4CCCCC4)cc3)cc2)ccn1 (centres unmarked) [Cpd 134, 4-methyl-N-(4-(2-methyl-4-pyridinyl)-phenyl)-2-(4-(1-piperidinyl)phenyl)-pentanamide] |
| 154 | Cc1cc(-c2ccc(NC(=O)C(C)c3cccc(-c4ccc(N5CCOCC5)nc4)c3)cc2)ccn1 (centres unmarked) [Cpd 135, N-(4-(2-methyl-4-pyridinyl)phenyl)-2-(3-(6-(4-morpholinyl)-3-pyridinyl)phenyl)-propanamide] |
| 166 | Cc1cc(-c2ccc(NC(=O)C(C)c3cccc(N4CCN(c5ccccn5)CC4)c3)cc2)ccn1 (centres unmarked) [Cpd 139, N-(4-(2-methyl-4-pyridinyl)phenyl)-2-(3-(4-(2-pyridinyl)-1-piperazinyl)phenyl)-propanamide] |
| 1050 | CSc1cccc(C(C)C(=O)Nc2ccc(-c3ccnc(C)c3)cc2)c1 (centres unmarked) [Cpd 142, N-(4-(2-methyl-4-pyridinyl)phenyl)-2-(3-(methylsulfanyl)phenyl)propanamide] |
| 485 | COc1cc(NC(=O)C(C)c2cccc(Br)c2)ccc1-c1ccnc(C)c1 (centres unmarked) [Cpd 143] |
| 116 | Cc1cc(-c2ccc(NC(=O)C(C)c3cccc(-c4ccc(N(C)C)cc4)c3)cc2)ccn1 (centres unmarked) [Cpd 147, 2-(4'-(dimethylamino)-3-biphenylyl)-N-(4-(2-methyl-4-pyridinyl)phenyl)propanamide] |
| 582 | Cc1cc(-c2ccc(NC(=O)C(C)n3cnc(-c4ccccc4)c3)cc2)ccn1 (centres unmarked) [Cpd 151, N-(4-(2-methyl-4-pyridinyl)phenyl)-2-(4-phenyl-1H-imidazol-1-yl)propanamide] |
| 216 | Cc1cc(-c2ccc(NC(=O)C(C)c3cccc(-c4cccc(C#N)c4)c3)cc2)ccn1 (centres unmarked) [Cpd 154, 2-(3′-cyano-3-biphenylyl)-N-(4-(2-methyl-4-pyridinyl)phenyl)propanamide] |
| 246 | COc1ncc(-c2cccc(C(C)C(=O)Nc3ccc(-c4ccnc(C)c4)cc3)c2)cn1 (centres unmarked) [Cpd 156, 2-(3-(2-methoxy-5-pyrimidinyl)phenyl)-N-(4-(2-methyl-4-pyridinyl)phenyl)-propanamide] |
| 256 | Cc1cc(-c2ccc(NC(=O)C(C)c3cccc(-c4ccc(C(=O)N(C)C)cc4)c3)cc2)ccn1 (centres unmarked) [Cpd 157] |
| 139 | CC(=O)c1ccc(-c2cccc(C(C)C(=O)Nc3ccc(-c4ccnc(C)c4)cc3)c2)cc1 (centres unmarked) [Cpd 158, 2-(4′-acetyl-3-biphenylyl)-N-(4-(2-methyl-4-pyridinyl)phenyl)propanamide] |
| 184 | Cc1cc(-c2ccc(NC(=O)C(CC3CC3)c3cccc(Br)c3)cc2)ccn1 (centres unmarked) [Cpd 163, 2-(3-bromophenyl)-3-cyclopropyl-N-(4-(2-methyl-4-pyridinyl)phenyl)propanamide] |
| 1160 | Cc1cc(-c2ccc(NC(=O)C(C)c3cccc(Nc4ccccc4)c3)cc2)ccn1 (centres unmarked) [Cpd 165, N-(4-(2-methyl-4-pyridinyl)phenyl)-2-(3-(phenylamino)phenyl)propanamide] |
| 540 | Cc1cc(-c2ccc(NC(=O)C(C)c3ccc(N(CC4CC4)CC4CC4)cc3)cc2)ccn1 (centres unmarked) [Cpd 172] |
| 1270 | Cc1cc(-c2ccc(NC(=O)C(C)c3cccc(-c4ccsc4)c3)cc2)ccn1 (centres unmarked) [Cpd 174, N-(4-(2-methyl-4-pyridinyl)phenyl)-2-(3-(3-thiophenyl)phenyl)propanamide] |
| 367 | Cc1cc(-c2ccc(NC(=O)[C@H](CC3CC3)c3cccc(Br)c3)cc2)ccn1 [Cpd 180, (2R)-2-(3-bromophenyl)-3-cyclopropyl-N-(4-(2-methyl-4-pyridinyl)phenyl)-propanamide] |
| 827 | Cc1cc(-c2ccc(NC(=O)C(C)c3cccc(-c4csc(N5CCOCC5)n4)c3)cc2)ccn1 (centres unmarked) [Cpd 183] |
| 1090 | Cc1cc(-c2ccc(NC(=O)C3CC3(C)C)cc2)ccn1 (centres unmarked) [Cpd 184] |
| 910 | Cc1cc(-c2ccc(NC(=O)C3CC3(F)F)cc2)ccn1 (centres unmarked) [Cpd 185] |
| 349 | Cc1cc(-c2ccc(NC(=O)[C@H](CC(C)C)c3cc(F)cc(F)c3)cc2)ccn1 [Cpd 190] |
| 179 | COc1cc(NC(=O)C(C)c2cccc(-c3ccc(N4CCOCC4)cc3)c2)ccc1-c1ccnc(C)c1 (centres unmarked) [Cpd 191] |
| 1050 | CCC(C(=O)Nc1ccc(-c2ccnc(C)c2)cc1)c1cccc(C)c1 (centres unmarked) [Cpd 200, 2-(3-methylphenyl)-N-(4-(2-methyl-4-pyridinyl)phenyl)butanamide] |
| 135 | Cc1cc(-c2ccc(NC(=O)C(CC(C)C)c3cccc(-c4ccc(N5CCN(C(=O)OC(C)(C)C)CC5)cc4)c3)cc2)ccn1 (centres unmarked) [Cpd 228, tert-butyl 4-(3′-(3-methyl-1-((4-(2-methyl-4-pyridinyl)phenyl)carbamoyl)butyl)-4-biphenylyl)-1-piperazinecarboxylate] |
| 573 | Cc1cc(-c2ccc(NC(=O)C3(c4ccc(Cl)cc4)CCC3)cc2)ccn1 [Cpd 310] |
